Source: paper PMC10766610, “DCAF1-based PROTACs with activity against clinically validated targets overcoming intrinsic- and acquired-degrader resistance” (Nature Communications, 2024)
Like-named read-outs stand apart in the source and are kept apart here.

Assays:
DCAF1(WDR) [1] = target: T1, DCAF1(WDR) (Homo sapiens, UniProt Q9Y4B6, E1398S); test: DCAF1 TR-FRET competition assay, standard binary format; assay type: binding
T1 construct: His6 (C); made in house; host or cells: Sf9 insect cells (baculovirus), co-expressed with BirA
T1 sequence (Q9Y4B6 1073-1399 E1398S): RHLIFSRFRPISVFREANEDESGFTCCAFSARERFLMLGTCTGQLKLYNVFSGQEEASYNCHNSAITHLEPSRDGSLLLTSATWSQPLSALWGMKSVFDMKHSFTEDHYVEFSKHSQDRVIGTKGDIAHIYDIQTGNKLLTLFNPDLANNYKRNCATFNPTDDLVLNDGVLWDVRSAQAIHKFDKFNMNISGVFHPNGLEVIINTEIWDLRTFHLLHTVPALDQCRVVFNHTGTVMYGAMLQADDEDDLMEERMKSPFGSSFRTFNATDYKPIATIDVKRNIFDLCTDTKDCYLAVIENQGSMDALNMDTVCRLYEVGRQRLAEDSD
Description: Competition assay conditions consist of 20 µL total volume in white 384-well plates (Greiner), in 30 mM phosphate buffer pH 7.4 containing 140 mM NaCl, 0.01% Tween20, 1 mM TCEP and 1% final DMSO. Tested compounds at 14 different concentrations were pre-incubated at 22 °C for 30 min with a large excess of 10 µM human BTK (G389-S659) or 10 µM human BRD9-BD(130-250) in the cooperative assay or with buffer in standard binary assay. […] Samples were then incubated at 22 °C for 30 min before reading using a Tecan infinite M-1000 or PheraStar FSX (excitation 340 nm, emission 490 and 520 nm). DCAF1 protein was omitted in the negative control. IC50 fitting was carried out using an in-house developed software (Novartis Helios software application, unpublished, a publicly available alternative would be e.g., Graphpad Prism) using the methods described by Fomenko et al.[93] (regression algorithms for nonlinear dose-response curve fitting). Following normalization of activity values for the wells to % inhibition (% inhibition = [(high control-sample)/(high control-low control)] × 100). Data analysis could also be carried out using GraphPad Prism without prior normalization. The reported IC50 values are the average of at least two independent experiments.

DCAF1(WDR) [2] = target: T1, DCAF1(WDR); test: SPR, surface immobilized DCAF1(WDR), binary compound binding
BTK [3] = target: T2, BTK (Homo sapiens, UniProt Q06187); test: BTK-GFP degradation by flow cytometry in TMD8 BTK-GFP/mCh cells; assay type: cell-based; design: performed with full-length BTK and endogenous DCAF1; expressed in transfected cells; host or cells: TMD8 cells, lentiviral, blasticidin-selected (TMD8 BTK-GFP/mCh); conditions: for DC50 / max. BTK degradation (%): 24 h
T2 sequence (Q06187 2-659 limits assumed): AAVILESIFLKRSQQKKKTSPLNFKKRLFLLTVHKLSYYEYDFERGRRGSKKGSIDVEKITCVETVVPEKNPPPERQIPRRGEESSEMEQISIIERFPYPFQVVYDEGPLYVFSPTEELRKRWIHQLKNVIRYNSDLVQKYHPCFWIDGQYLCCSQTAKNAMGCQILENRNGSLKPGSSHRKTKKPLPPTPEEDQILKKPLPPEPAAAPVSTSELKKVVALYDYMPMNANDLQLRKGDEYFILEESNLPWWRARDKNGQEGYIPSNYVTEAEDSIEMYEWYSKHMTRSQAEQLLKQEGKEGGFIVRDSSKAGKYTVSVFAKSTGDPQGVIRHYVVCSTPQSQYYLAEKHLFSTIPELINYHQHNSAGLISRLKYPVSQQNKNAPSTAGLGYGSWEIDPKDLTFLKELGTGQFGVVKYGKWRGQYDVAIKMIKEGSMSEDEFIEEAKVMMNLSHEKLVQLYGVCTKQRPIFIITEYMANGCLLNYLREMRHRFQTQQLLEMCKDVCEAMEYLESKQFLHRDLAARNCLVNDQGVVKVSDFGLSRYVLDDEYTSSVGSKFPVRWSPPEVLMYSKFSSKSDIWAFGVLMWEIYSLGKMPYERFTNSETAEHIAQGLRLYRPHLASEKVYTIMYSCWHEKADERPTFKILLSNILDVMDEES
Description: The bicistronic pLenti6 BTK-GFP-chysel-mCHERRY expression vector was cloned as described[92] using Gateway cloning with a pENTR-BTK plasmid lacking a STOP codon. TMD8 cells were then infected with lentiviral particles from this vector as described above and stably transfected cells were selected with blasticidin at a concentration of 10 μg/mL referred to as TMD8 BTK-GFP/mCh cells.
For flow cytometry measurements, 25,000 exponentially growing TMD8 BTK-GFP/mCh cells were plated in 100 μL of each well of a 96-well plate and grown for 24 h. Cells were then dosed with corresponding compounds and doses from 10 mM DMSO stock for 24 h, after which GFP and mCherry fluorescence was read with a Beckmann Coulter Cytoflex. For competition experiment, both compounds were added at the same time and dosed for 24 h. Cells were gated based on Forward & Side Scatter and selection for Single cells using SSC-A vs. SSC-H. Further, the population of viable cells was defined by the forward & side-scatter characteristics of DMSO-treated cells. To confirm cells outside of this population as non-viable, cells were plated and treated for 24 h, washed with PBS and stained for 30 min with two markers of early (Annexin-V) and late (LIVE/DEAD) apoptosis. Effects on viability were measured by the reduction of the percentage of cells included in this viable-population gate with increasing doses of compound tested. Degradation of BTK was calculated based on subtracting background (BG) fluorescence of parental TMD8 signal via (GFP-BG)/(mCherry-BG) of viable cells. Median ratios of three technical (different wells) replicates were used to calculate daily averages. Each compound dose–response was generated via three biological replicates (different days of experiment). Degradation curve parameters (DC50 & Abs. DC50 & max. Deg) were extracted using GraphPad Prism’s 4-parameter logistic curve fitting.

BTK [4] = target: T2, BTK; test: Immunoblot of endogenous BTK in TMD8 cells; assay type: cell-based; design: performed with full-length BTK and endogenous DCAF1; expressed in transfected cells; host or cells: TMD8 cells, lentiviral, blasticidin-selected (TMD8 BTK-GFP/mCh)
Description: Whole cell lysates for immunoblotting were prepared by pelleting cells at 4 °C (300 g) for 3 min. Cell pellets were then washed 1x with PBS and resuspended in RIPA lysis buffer (VWR, cat # 97063-270) supplemented with protease (Thermo Scientific, cat # A32955) and phosphatase (Thermo Scientific, cat # A32957) inhibitor tablets. Lysates were clarified at 16,000 × g for 15 min at 4 °C prior to quantification by Lowry assay (Bio-Rad cat # 5000113 and cat # 5000114). Whole-cell lysates were loaded into 4–20% Criterion TGX Precast 18 well gels (Bio-Rad, cat # 5671094) and separated by electrophoreses at 120 V for 1 h. The gels were transferred to a nitrocellulose membrane using the Trans-Blot Turbo (Bio-Rad) for 7 min and then blocked for 1 h at room temperature in Odyssey blocking buffer (LICOR Biosciences, cat # 927-50000). Membranes were probed with the appropriate primary antibodies (diluted 1:1000) overnight at 4 °C in 20% Odyssey blocking buffer in 1x TBST. Membranes were washed three times with 1x TBST (5 min per wash), and then incubated with IRDye goat anti-mouse (LICOR, cat # 926-32210) or goat anti-rabbit (LICOR, cat # 926-32211) secondary antibody diluted 1:10,000 in 20% Odyssey blocking buffer for 1 h at room temperature. After three 5-min washes with 1x TBST, the immunoblots were visualized using the ODYSSEY Infrared Imaging System (LICOR). Alternatively, SDS-PAGE resolved proteins were transferred to a PVDF membrane using a wet blotting system (Invitrogen). Membranes were blocked in 5% Milk-PBS-Tween 20 for 1 h and incubated with primary antibody over night at 4 °C. Secondary antibodies (secondary antibody: anti-rabbit, goat pAb to Rb-IgG (Abcam, #7090); secondary antibody: anti-mouse, sheep IgG HRP-linked (GE healthcare, #NA931V)) were incubated for 1 h at room temperature (RT) before blots were developed on film using the detection kit SuperSignal West Femto Maximum Sensitivity Substrate (Thermo Fisher, #34096).

[5] = ± SD (n), read-out: IC50 DCAF1 TR-FRET
[6] = Fig. 6b, SPR, read-out: KD DCAF1
[7] = Fig. 6b, read-out: DC50 BTK degradation (24h)
[8] = TMD8 BTK-GFP/mCh, read-out: Absolute DC50 BTK-Degradation
[9] = TMD8 BTK-GFP/mCh, read-out: DC50 BTK-Degradation

SMILES	IC50 (DCAF1(WDR) [1]; binary, compound alone, spread in brackets, read-out: TR-FRET Q. IC50)	Kd (DCAF1(WDR) [2]; binary, compound alone, spread in brackets, read-out: SPR KD)	IC50 (DCAF1(WDR) [1]; [5])	Kd (DCAF1(WDR) [2]; [6])	max. BTK degradation (24h, %) (BTK [3]; Fig. 6b)	DC50 (BTK [3]; [7])	max. BTK degradation (%) (BTK [3]; TMD8 BTK-GFP/mCh)	DC50 (BTK [3]; [8])	DC50 (BTK [3]; [9])	concentration giving significant reduction of BTK (BTK [4]; TMD8, 6 h dose-response, immunoblot)	BTK degradation potency (BTK [4]; TMD8, 24 h, immunoblot)	DC50 (BTK [3]; TMD8 BTK-GFP/mCh, read-out: DC50 BTK-GFP degradation)	BTK reduction by control treatment (BTK [4]; TMD8, 1 µM, 1, 3, 6 and 24 h)
COc1cc(-c2cn(C)c(=O)c3cnccc23)c(OC)cc1CN1CCC(OCCCCCC(=O)N2CCN(c3ccc4c(NCCN)nc(C5(c6ccc(Cl)cc6)CCCCC5)nc4c3)CC2)CC1 [DBr-1]	38 nM	13 nM	–	–	–	–	–	–	–	–	–	–	–
Cc1c(NC(=O)c2ccc(C(C)(C)O)cc2F)cc(F)cc1-c1ncnc2[nH]c(-c3ccc(CNCCOCCOCCOCCOCCOCCOCCOCCOCCOCCOCCOCCOCCC(=O)N4CCN(c5ccc6c(NCCN)nc(C7(c8ccc(Cl)cc8)CCCCC7)nc6c5)CC4)cc3)cc12 [DBt-5]	–	–	23 ± 5 nM	90 nM	100%	50 nM	100%	50 nM	50 nM	–	–	–	–
Cc1c(NC(=O)N2CC(O)(CC(C)(C)C)C2)cc(F)cc1-c1ncnc2[nH]c(-c3cnn(CC(=O)N4CCC5(CC4)CN(CCNC(=O)CCCC(=O)N4CCN(c6ccc7c(NCCN)nc(C8(c9ccc(Cl)cc9)CCCCC8)nc7c6)CC4)CCO5)c3)cc12 [DBt-10]	–	–	134 ± 68 nM	147 nM	94%	137 nM	94%	149 nM	137 nM	2.5 µM	–	–	–
Cc1nc(Nc2ncc(C(=O)Nc3c(C)cccc3Cl)s2)cc(N2CCC(OC3CCN(CCCCCCCC(=O)N4CCN(c5ccc6c(NCCN)nc(C7(c8ccc(Cl)cc8)CCCCC7)nc6c5)CC4)CC3)CC2)n1 [DDa-1]	–	–	–	–	–	–	–	146 nM	91.3 nM	–	sub-µM potency	90 nM	–
CC(=O)N1CCN(c2ccc3c(NCCN)nc(C4(c5ccc(Cl)cc5)CCCCC4)nc3c2)CC1 [compound 13]	–	–	–	–	–	–	0%	–	> 25000 nM	–	–	–	did not reduce BTK at any time points
